# Experimental data: patent US20240417738A1, “IMMUNOTHERAPIES FOR THE TREATMENT OF CANCER” (Ohio State Innovation Foundation, priority 2021, published 2024)
# How the values were obtained:
# [1] = Saturated solubility study in squalene NE and PBS; assay type: physicochemical; details: 2 mg/ml, room temperature, 24 hours
# Protocol: In the saturated solubility study, R848 or IVM were dissolved in PBS or formulated in NE at 2 mg/ml and incubated at room temperature for 24 hours. Insoluble solid drugs were pelleted down by centrifugation. Supernatants were collected for concentration analysis. R848 concentrations were quantified by UV-Vis spectrometry at 320 nm using a NanoDrop 2000 spectrophotometer. IVM concentrations were quantified by high-performance liquid chromatography (HPLC) using an isocratic mobile phase composed of water/methanol/acetonitrile (8:36:56, v/v/v), an C18 column (Kromasil 150-C-18, 4.6×150 mm), and PDA detection at 230 nm.
# MC38 cells = experiment: Cell viability assay (MTS); assay type: cell-based, murine; details: (SEM)
# Protocol: Cell Viability Assay. MC38 cells were seeded at 3000 cells/well in 96-well plates 24 hours before treatments. […] After 72 hour-treatment, cell viability was examined by CellTiter 96R AQueous One Solution (Promega, Madison, WI) per manufacturer protocol. The IC50 for R848 or IVM was determined by R programming.
# [2] = test system: Calreticulin, Hmgb1, Lc3b mRNA in MC38 cells; experiment: In vitro gene regulation by RT-qPCR; assay type: cell-based, murine; details: 8 μM, 24 hours
# Protocol: MC38 cells were seeded at 3×10^5 cells/well in 6-well plates 24 hours before treatments. […] R848 and IVM were both treated at 8 μM, either as free drug solution or in squalene NE. Total RNA was extracted using TRI reagent (Zymo Research) per manufacturer protocol. cDNA was prepared by high-capacity cDNA reverse transcription kit (Invitrogen, Waltham, MA, USA), and real-time qPCR (RT-qPCR) was done using SsoAdvanced™ Universal SYBRR Green Supermix (Bio-Rad Laboratories, Hercules, CA) on a QuantStudio 7 Flex Real-time PCR System. RT-qPCR primers for murine Calreticulin, Hmgb1, Lc3b, and Actb were purchased from Sigma-Aldrich. Actb was selected as the housekeeping gene control. The relative amount of RNA level was calculated and compared according to the 2-ΔΔCt method.
SMILES,Increase of solubility in squalene-based NE compared with PBS [1] [fold],"IC50 (MC38 cells; Mus musculus, MC-38, 72 hours) [µM]",IC50 (MC38 cells; 72 hours) [µM],Calreticulin mRNA level [2]
"CCOCc1nc2c(N)nc3ccccc3c2n1CC(C)(C)O [R848, 4-amino-2-ethoxymethyl-α, α-dimethyl-1H-imidazol[4,5-c]quinoli-ne-1-ethanol]",2,> 100,–,–
CC[C@H](C)[C@H]1O[C@]2(CC[C@@H]1C)C[C@@H]1C[C@@H](C/C=C(\C)[C@@H](O[C@H]3C[C@H](OC)[C@@H](O[C@H]4C[C@H](OC)[C@@H](O)[C@H](C)O4)[C@H](C)O3)[C@@H](C)/C=C/C=C3\CO[C@@H]4[C@H](O)C(C)=C[C@@H](C(=O)O1)[C@]34O)O2 [IVM],100,–,10.9 ± 4.15,did not show significant Calreticulin regulation
